Reference: ChEMBL document CHEMBL1201862, “PubChem BioAssay data set” (2004)
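48-hour exposure; five concentrations; linearly interpolated endpoints. At the GI50, growth is halved.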 Active and inactive are the calls of the source. Cut-off read from the data, not from the text of the source: active = GI50 up to about 1.1 µM and inactive = higher.

Key:
Test in all cases: NCI anticancer screen, dose series, 48 h
EKVX = test system: EKVX
786-0 = test system: 786-0
HOP-92 = test system: HOP-92
NCI/ADR-RES = test system: NCI/ADR-RES
LOX IMVI = test system: LOX IMVI
CAKI-1 = test system: CAKI-1
TK-10 = test system: TK-10
M14 = test system: M14
Hs-578T = test system: Hs-578T
NCI-H23 = test system: NCI-H23
MOLT-4 = test system: MOLT-4
RPMI-8226 = test system: RPMI-8226
OVCAR-4 = test system: OVCAR-4
HCT-15 = test system: HCT-15
PC-3 = test system: PC-3
SR = test system: SR
HL-60 = test system: HL-60
SF-295 = test system: SF-295
SNB-19 = test system: SNB-19
NCI-H522 = test system: NCI-H522

Measured: GI50

O=c1c2ccccc2sc2c(CO)ccc(NCCN3CCCCC3)c12
inactive: EKVX 4.66 µM | 786-0 2.47 µM | HOP-92 5.83 µM | NCI/ADR-RES 2.64 µM | LOX IMVI 2.86 µM | CAKI-1 3.45 µM | TK-10 3.48 µM | M14 1.93 µM | Hs-578T 4.38 µM | NCI-H23 2.96 µM | RPMI-8226 1.91 µM | OVCAR-4 2.48 µM | PC-3 4.31 µM | HL-60 3.08 µM | SF-295 3.61 µM | SNB-19 4.73 µM | NCI-H522 1.58 µM
active: MOLT-4 1.04 µM | SR 0.497 µM
3.56 µM: HCT-15

CCOP(=O)(Nc1ccc2oc(=O)c3ccccc3c2c1)OCC
inactive: EKVX 46 µM | 786-0 76.7 µM | HOP-92 24.6 µM | NCI/ADR-RES 71.1 µM | LOX IMVI 47.5 µM | CAKI-1 26.2 µM | TK-10 49.1 µM | M14 > 100 µM | Hs-578T 19.8 µM | NCI-H23 > 100 µM | MOLT-4 54.8 µM | RPMI-8226 21.2 µM | OVCAR-4 60.1 µM | PC-3 27.8 µM | SR 31.7 µM | HL-60 19.4 µM | SF-295 > 100 µM | SNB-19 84.1 µM | NCI-H522 68.9 µM
79.8 µM: HCT-15

COc1cc(C2c3cc4c(cc3OC(Nc3ccc(C(=O)O)cc3)C2C)OCO4)cc(OC)c1OC (stereo not given)
inactive: HOP-92 4.13 µM | TK-10 25.4 µM | Hs-578T 1.39 µM
0.294 µM: HCT-15
active: EKVX 0.745 µM | 786-0 0.468 µM | NCI/ADR-RES 0.29 µM | LOX IMVI 0.532 µM | CAKI-1 0.204 µM | M14 0.301 µM | NCI-H23 0.454 µM | MOLT-4 0.434 µM | RPMI-8226 0.337 µM | OVCAR-4 0.458 µM | PC-3 0.253 µM | SR 0.204 µM | HL-60 0.186 µM | SF-295 0.214 µM | SNB-19 0.472 µM | NCI-H522 0.376 µM

CCOC(=O)CN1C(=O)c2cc([N+](=O)[O-])cc3cc([N+](=O)[O-])cc(c23)C1=O
inactive: EKVX > 100 µM | 786-0 48.8 µM | HOP-92 > 77.8 µM | NCI/ADR-RES > 80.4 µM | LOX IMVI 4.1 µM | CAKI-1 30.5 µM | TK-10 > 100 µM | M14 24.7 µM | Hs-578T > 100 µM | NCI-H23 99.3 µM | MOLT-4 3.56 µM | RPMI-8226 19.6 µM | OVCAR-4 > 100 µM | PC-3 > 100 µM | SR 1.45 µM | HL-60 1.71 µM | SF-295 72.3 µM | SNB-19 > 83.4 µM | NCI-H522 4.21 µM
17.3 µM: HCT-15

O=c1[nH]c2nc3ccccc3c(=O)n2/c1=C/c1ccco1
inactive: EKVX > 100 µM | 786-0 > 100 µM | HOP-92 > 100 µM | NCI/ADR-RES > 100 µM | LOX IMVI > 100 µM | CAKI-1 > 100 µM | TK-10 > 100 µM | M14 > 100 µM | Hs-578T > 100 µM | NCI-H23 > 100 µM | MOLT-4 > 100 µM | RPMI-8226 > 100 µM | OVCAR-4 > 100 µM | PC-3 > 100 µM | SR > 100 µM | HL-60 > 100 µM | SF-295 > 100 µM | SNB-19 > 100 µM | NCI-H522 > 100 µM
> 100 µM: HCT-15

COc1ccc(/C(CC2OC(=O)c3ccccc32)=N\NC(N)=O)cc1 (stereo not given)
> 100 µM: HCT-15
inactive: EKVX > 100 µM | 786-0 > 100 µM | HOP-92 > 100 µM | NCI/ADR-RES > 100 µM | LOX IMVI > 100 µM | CAKI-1 > 100 µM | TK-10 > 100 µM | M14 > 100 µM | Hs-578T > 100 µM | NCI-H23 > 100 µM | MOLT-4 > 100 µM | RPMI-8226 > 100 µM | OVCAR-4 > 100 µM | PC-3 > 100 µM | SR > 100 µM | HL-60 > 100 µM | SF-295 > 100 µM | SNB-19 > 100 µM | NCI-H522 > 100 µM

CCOC(=O)CCC(C(=O)OCC)n1nnc2cc(Nc3c(C)[n+]([O-])c4ccc(Cl)cc4[n+]3[O-])ccc21 (stereo not given)
53.7 µM: HCT-15
inactive: EKVX 23.2 µM | 786-0 98.4 µM | HOP-92 50.8 µM | NCI/ADR-RES 47.1 µM | LOX IMVI 52.2 µM | CAKI-1 57 µM | TK-10 > 100 µM | M14 > 100 µM | Hs-578T > 100 µM | NCI-H23 92 µM | MOLT-4 44.2 µM | RPMI-8226 47.2 µM | OVCAR-4 79.8 µM | PC-3 > 100 µM | SR 48.6 µM | HL-60 45 µM | SF-295 78 µM | SNB-19 > 100 µM | NCI-H522 > 100 µM

COc1ccc(OC)c(C2CCc3cnc4nc(N)nc(N)c4c3C2)c1 (stereo not given)
> 100 µM: HCT-15
inactive: EKVX > 100 µM | 786-0 66.7 µM | HOP-92 > 100 µM | NCI/ADR-RES > 100 µM | LOX IMVI 62.1 µM | CAKI-1 > 100 µM | TK-10 > 100 µM | M14 92.3 µM | Hs-578T > 100 µM | NCI-H23 64.6 µM | MOLT-4 > 100 µM | RPMI-8226 > 100 µM | OVCAR-4 > 100 µM | PC-3 > 100 µM | SR 56.9 µM | HL-60 > 100 µM | SF-295 56.2 µM | SNB-19 > 100 µM | NCI-H522 > 100 µM

CSC(=N/N=C(\C)c1ccc(S(=O)(=O)N(C)c2ccccc2)cc1)SC
> 66.7 µM: HCT-15
inactive: EKVX > 65 µM | 786-0 > 64.9 µM | HOP-92 > 43.8 µM | NCI/ADR-RES > 100 µM | LOX IMVI > 69.7 µM | CAKI-1 > 64.9 µM | TK-10 > 100 µM | M14 > 63.1 µM | Hs-578T > 59.4 µM | NCI-H23 > 63.1 µM | MOLT-4 17.2 µM | RPMI-8226 13.1 µM | OVCAR-4 > 58.6 µM | PC-3 > 62.7 µM | SR > 59.6 µM | HL-60 > 43.5 µM | SF-295 > 64.7 µM | SNB-19 > 66.2 µM | NCI-H522 > 100 µM

Cc1nc(C)c(N2CCN(S(N)(=O)=O)CC2)c(O)n1
> 100 µM: HCT-15
inactive: EKVX > 100 µM | 786-0 > 100 µM | HOP-92 > 100 µM | NCI/ADR-RES > 100 µM | LOX IMVI > 100 µM | CAKI-1 > 100 µM | TK-10 > 100 µM | M14 > 100 µM | Hs-578T > 100 µM | NCI-H23 > 100 µM | MOLT-4 > 100 µM | RPMI-8226 > 100 µM | OVCAR-4 > 100 µM | PC-3 > 100 µM | SR > 100 µM | HL-60 > 100 µM | SF-295 > 100 µM | SNB-19 > 100 µM | NCI-H522 > 100 µM

Cc1ccc(O)c(Cc2nc3ccccc3nc2-c2cccc(Br)c2)c1
inactive: EKVX > 100 µM | 786-0 57 µM | HOP-92 > 100 µM | NCI/ADR-RES > 100 µM | LOX IMVI > 100 µM | CAKI-1 85.3 µM | TK-10 > 100 µM | M14 > 100 µM | Hs-578T 12.5 µM | NCI-H23 > 100 µM | MOLT-4 25.2 µM | RPMI-8226 47.3 µM | OVCAR-4 > 100 µM | PC-3 > 100 µM | SR 33.2 µM | HL-60 52.1 µM | SF-295 > 100 µM | SNB-19 19.9 µM | NCI-H522 44.2 µM
22.3 µM: HCT-15

NC1=NCC(CN2CCCC2)O1 (stereo not given)
> 100 µM: HCT-15
inactive: EKVX > 100 µM | 786-0 > 100 µM | HOP-92 > 100 µM | NCI/ADR-RES > 100 µM | LOX IMVI > 100 µM | CAKI-1 > 100 µM | TK-10 > 100 µM | M14 > 100 µM | Hs-578T > 100 µM | NCI-H23 > 100 µM | MOLT-4 > 100 µM | RPMI-8226 > 100 µM | OVCAR-4 > 100 µM | PC-3 > 100 µM | SR > 100 µM | HL-60 > 100 µM | SF-295 > 100 µM | SNB-19 > 100 µM | NCI-H522 > 100 µM

CC(C)NC(=O)OCc1c(COC(=O)NC(C)C)n(C)c2c1ccc1ccccc12
inactive: EKVX 2.43 µM | 786-0 1.21 µM | HOP-92 1.16 µM | NCI/ADR-RES 2.29 µM | LOX IMVI 1.16 µM | TK-10 1.63 µM | M14 1.63 µM | NCI-H23 1.54 µM | MOLT-4 1.15 µM | RPMI-8226 1.19 µM | OVCAR-4 2.75 µM | PC-3 4.43 µM | HL-60 2.86 µM | SF-295 4.56 µM | SNB-19 1.74 µM
1.54 µM: HCT-15
active: CAKI-1 0.542 µM | Hs-578T 0.971 µM | SR 0.57 µM | NCI-H522 0.0417 µM

COc1ccc2c(c1[N+](=O)[O-])CC[C@@H]1[C@@H]2CC[C@]2(C)C(=O)CC[C@@H]12
> 25 µM: HCT-15
inactive: EKVX > 25 µM | 786-0 210 µM | HOP-92 21.4 µM | NCI/ADR-RES > 25 µM | LOX IMVI > 25 µM | CAKI-1 > 25 µM | TK-10 > 25 µM | M14 > 25 µM | Hs-578T 17.1 µM | NCI-H23 > 25 µM | MOLT-4 > 25 µM | RPMI-8226 > 25 µM | OVCAR-4 15.5 µM | PC-3 22 µM | SR > 1000 µM | HL-60 24.5 µM | SF-295 > 25 µM | SNB-19 24.2 µM | NCI-H522 > 25 µM
